We go through 35 molecules from patent US7202254B2, “Antibacterial compounds: process for their preparation and pharmaceutical compositions containing them” (Dr. Reddy's Laboratories Limited, priority 2002, dated 2007).

Regarding `OCc1cn(-c2ccc(N3CCOCC3)c(F)c2)nn1` [Example 2, [1-(3-Fluoro-4-morpholin-4-yl-phenyl)-1H-[1,2,3]triazol-4-yl]-methanol], the melting point (in general, the temperature of the solid-liquid transition) was 198 °C.
`[N-]=[N+]=NCc1cn(-c2ccc(N3CCOCC3)c(F)c2)nn1` [Example 12, 4-[4-(4-Azidomethyl-[1,2,3]triazol-1-yl)-2-fluorophenyl]-morpholine] showed a melting point of 90 °C.
Take `NCc1cn(-c2cc(F)c(N3CC[S+]([O-])CC3)c(F)c2)nn1` [Example 28, C-{1-[3,5-Difluoro-4-(1-oxo-1lambda*4*-thiomorpholin-4-yl)-phenyl]-1H-[1,2,3]triazol-4-yl}-methylamine]: the melting point was determined as 190 °C.
The figure for `CC(=O)NCc1cn(-c2cc(F)c(N3CCOCC3)c(F)c2)nn1` [Example 41, N-[1-(3,5-Difluoro-4-morpholin-4-yl-phenyl)-1H-[1,2,3]triazol-4-ylmethyl]-acetamide] is 218 °C.
The molecule `CC(=O)NCc1cn(-c2ccc(N3CCOCC3)c(F)c2)nn1` [Example 42, N-[1-(3-Fluoro-4-morpholin-4-yl-phenyl)-1H-[1,2,3]triazol-4-ylmethyl]-acetamide] registered a melting point of 218 °C.
The molecule `CC(=O)NCc1cn(-c2cc(F)c(N3CCSCC3)c(F)c2)nn1` [Example 43, N-[1-(3,5-Difluoro-4-thiomorpholin-4-yl-phenyl)-1H-[1,2,3]triazol-4-ylmethyl]-acetamide] yielded a melting point of 210 °C.
To `CC(=O)NCc1cn(-c2cc(F)c(N3CC[S+]([O-])CC3)c(F)c2)nn1` [Example 44, N-{1-[3,5-Difluoro-4-(1-oxo-1lambda*4*-thiomorpholin-4-yl)-phenyl]-1H-triazol-4-ylmethyl}-acetamide] belongs 203 °C.
Molecule `CC(=O)NCc1cn(-c2cc(F)c(N3CCS(=O)(=O)CC3)c(F)c2)nn1` [Example 45, N-{1-[4-(1,1-Dioxo-1lambda*6*-thiomorpholin-4-yl)-3,5-difluoro-phenyl]-1H-[1,2,3]triazol-4-ylmethyl}-acetamide] showed a melting point of 197 °C.
The figure for `CC(=O)NCc1cn(-c2ccc(N3CCSCC3)c(F)c2)nn1` [Example 46, N-[1-(3-Fluoro-4-thiomorpholin-4-yl-phenyl)-1H-[1,2,3]triazol-4-ylmethyl]-acetamide] is 207 °C; for `CC(=O)NCc1cn(-c2ccc(N3CC[S+]([O-])CC3)c(F)c2)nn1` [Example 47, N-{1-[3-Fluoro-4-(1-oxo-1lambda*4*-thiomorpholin-4-yl)-phenyl]-H-[1,2,3]triazol-4-ylmethyl}-acetamide] it is 210 °C; for `COC(=O)NCc1cn(-c2ccc(N3CC[S+]([O-])CC3)c(F)c2)nn1` [Example 48, {1-[3-Fluoro-4-(1-oxo-1lambda*4*-thiomorpholin-4-yl)-phenyl]-1H-[1,2,3]triazol-4-ylmethyl}-carbamic acid methyl ester] it is 218 °C.
The molecule `CC(=O)NCc1cn(-c2ccc(N3CCS(=O)(=O)CC3)c(F)c2)nn1` [Example 49, N-{1-[4-(1,1-Dioxo-1lambda*6*-thiomorpholin-4-yl)-3-fluoro-phenyl]H-triazol-4-ylmethyl}-acetamide] returned a melting point of 198 °C.
To `O=CNCc1cn(-c2ccc(N3CC[S+]([O-])CC3)c(F)c2)nn1` [Example 50, N-{1-[3-Fluoro-4-(1-oxo-1lambda*4*-thiomorpholin-4-yl)-phenyl]-1H-[1,2,3]triazol-4-ylmethyl}-formamide] belongs 182 to 184 °C; to `CC(=S)NCc1cn(-c2ccc(N3CC[S+]([O-])CC3)c(F)c2)nn1` [Example 53, N-{1-[3-Fluoro-4-(1-oxo-1lambda*4*-thiomorpholin-4-yl)-phenyl]-1H-[1,2,3]triazol-4-ylmethyl}-thioacetamide], 245 °C; to `COC(=S)NCc1cn(-c2cc(F)c(N3CC[S+]([O-])CC3)c(F)c2)nn1` [Example 57, 1-[3,5-Difluoro-4-(1-oxo-1lambda*4*-thiomorpholin-4-yl)-phenyl]-1H-{[1,2,3]triazol-4-ylmethyl}-thiocarbamic acid O-methyl ester], 202 °C.
To `COC(=S)NCc1cn(-c2ccc(N3CCC4(CC3)OCCO4)c(F)c2)nn1` [Example 62, {1-[4-(1,4-Dioxa-8-aza-spiro[4.5]dec-8-yl)-3-fluoro-phenyl]-1H-[1,2,3]triazol-4-ylmethyl}-thiocarbamic acid O-methyl ester] belongs 135 to 137 °C.
Take `COC(=S)NCc1cn(-c2ccc(N3CCS(=N)CC3)c(F)c2)nn1` [Example 63, {1-[3-Fluoro-4-(1-imino-1lambda*4*-thiomorpholin-4-yl)-phenyl]-1H-[1,2,3]triazol-4-ylmethyl}-thiocarbamic acid O-methyl ester]: the melting point turned out to be 198 °C.
As to `CNC(=S)NCc1cn(-c2cc(F)c(N3CCOCC3)c(F)c2)nn1` [Example 64, 1-[1-(3,5-Difluoro-4-morpholin-4-yl-phenyl)-1H-[1,2,3]triazol-4-ylmethyl]-3-methyl-thiourea], the melting point was determined as 181 °C.
To `CCNC(=S)NCc1cn(-c2ccc(N3CC[S+]([O-])CC3)c(F)c2)nn1` [Example 65, 1-Ethyl-3-{1-[3-fluoro-4-(1-oxo-1lambda*4*-thiomorpholin-4-yl)-phenyl]-1H-[2,3]triazol-4-ylmethyl}-thiourea] belongs 204 °C; to `NNC(=S)NCc1cn(-c2ccc(N3CCSCC3)c(F)c2)nn1` [Example 66, 1-[3-fluoro-4-(4-thiomorpholinyl)phenyl]-1H-1,2,3-triazol-4-ylmethylamino-hydrazinomethanethione], 174 to 176 °C; to `CSC(=S)NCc1cn(-c2ccc(N3CC[S+]([O-])CC3)c(F)c2)nn1` [Example 68, {1-[3-Fluoro-4-(1-oxo-1lambda*4*-thiomorpholin-4-yl)-phenyl]-1H-[1,2,3]triazol-4-ylmethyl}-dithiocarbamic acid methyl ester], 184 °C.
The figure for `O=C(NC(=S)NCc1cn(-c2ccc(N3CCOCC3)c(F)c2)nn1)c1ccccc1` [Example 70, 1-Benzoyl-3-[1-(3-fluoro-4-morpholin-4-yl-phenyl)-1H-[1,2,3]triazol-4-ylmethyl]-thiourea] is 138 °C.
To `O=C(NCc1cn(-c2ccc(N3CCOCC3)c(F)c2)nn1)c1cnccn1` [Example 71, Pyrazine-2-carboxylic acid [1-(3-fluoro-4-morpholin-4-yl-phenyl)-1H-[1,2,3]triazol-4-ylmethyl]-amide] belongs 215 °C; to `O=C(NCc1cn(-c2ccc(N3CCSCC3)c(F)c2)nn1)c1cnccn1` [Example 72, N-{1-[3-fluoro-4-(4-thiomorpholinyl)phenyl]-1H-1,2,3-triazol-4-ylmethyl}-pyrazine-2-carboxamide], 216 to 218 °C; to `CSC(=S)OCc1cn(-c2ccc(N3CCOCC3)c(F)c2)nn1` [Example 73, Dithiocarbonic acid O-[1-(3-fluoro-4-morpholin-4-yl-phenyl)-1H-[1,2,3]triazol-4-ylmethyl]ester S-methyl ester], 118 °C.
In turn, `O=C(NCc1cn(-c2ccc(N3CCSCC3)c(F)c2)nn1)c1ccccn1` [Example 75, N-{1-[3-Fluoro-4-(4-thiomorpholinyl)phenyl]-1H-1,2,3-triazol-4-ylmethyl}-pyridine-2-carboxamide] displayed a melting point of 190 to 192 °C.
`NC(=S)NCc1cn(-c2ccc(N3CCOCC3)c(F)c2)nn1` [Example 76, [1-(3-Fluoro-4-morpholin-4-yl-phenyl)-1H-[1,2,3]triazol-4-ylmethyl]-thiourea] gave a melting point of 192 °C.
`NC(=S)NCc1cn(-c2ccc(N3CC[S+]([O-])CC3)c(F)c2)nn1` [Example 77, {1-[3-Fluoro-4-(1-oxo-1lambda*4*-thiomorpholin-4-yl)-phenyl]-1H-[1,2,3]triazol-4-ylmethyl}-thiourea] registered a melting point of 228 to 230 °C.
The molecule `CNC(=S)NCc1cn(-c2ccc(N3CC[S+]([O-])CC3)c(F)c2)nn1` [Example 78, 1-{1–[3-Fluoro-4-(1-oxo-1lambda*4*-thiomorpholin-4-yl)-phenyl]-1H-[1,2,3]triazol-4-ylmethyl}-3-methyl-thiourea] gave a melting point of 182 to 184 °C.
Molecule `O=C(NCc1cn(-c2ccc(N3CCOCC3)c(F)c2)nn1)C(Cl)Cl` [Example 79, 2,2-Dichloro-N-[1-(3-fluoro-4-morpholin-4-yl-phenyl)-1H-[1,2,3]triazol-4-ylmethyl]-acetamide] gave a melting point of 190 °C.
To `CS(=O)(=O)NCc1cn(-c2ccc(N3CC[S+]([O-])CC3)c(F)c2)nn1` [Example 80, N-{1-[3-Fluoro-4-(1-oxo-1lambda*4*-thiomorpholin-4-yl)-phenyl]-1H-[1,2,3]triazol-4-ylmethyl}-methanesulfonamide] belongs 174 to 176 °C; to `Fc1cc(-n2cc(CNC(=S)c3ccccn3)nn2)ccc1N1CCSCC1` [Example 81, N-{1-[3-fluoro-4-(−4-thiomorpholinyl)phenyl]-1H-1,2,3-triazol-4-ylmethyl}-pyridine-2-thiocarboxamide], 158 to 160 °C.
To `COC(=S)NCc1cn(-c2ccc(N3CCC(=O)CC3)c(F)c2)nn1` [Example 82, {1-[3-Fluoro-4-(4-oxo-piperidin-1-yl)-phenyl]-1H-[1,2,3]triazol-4-ylmethyl}-thiocarbamic acid O-methyl ester] belongs 145 to 147 °C; to `COC(=S)NCc1cn(-c2ccc(N3CCC(=NO)CC3)c(F)c2)nn1` [Example 83, {1-[3-Fluoro-4-(4-hydroxyimino-piperidin-1-yl)-phenyl]-1H-[1,2,3]triazol-4-ylmethyl}-thiocarbamic acid O-methyl ester], 141 to 142 °C.
The figure for `COC(=S)NCc1cn(-c2ccc(N3CCC(=C(C#N)C#N)CC3)c(F)c2)nn1` [Example 84, {1-[4-(4-Dicyanomethylene-piperidin-1-yl)-3-fluoro-phenyl]-1H-[1,2,3]triazol-4-ylmethyl}-thiocarbamic acid O-methyl ester] is 198 °C.
